From article PMC8151143 come the findings set out here.

The experiment has as its target T1, rPtCLec2 (PtCLec2) (Portunus trituberculatus, UniProt A0A7S5QMV0).
T1 construct: gene CLec2; mature peptide (signal peptide residues 1-19 removed) in pET-32a, N-terminal Trx and His tags kept, about 50 kDa; single CRD with QPD motif
T1 sequence (A0A7S5QMV0 20-267): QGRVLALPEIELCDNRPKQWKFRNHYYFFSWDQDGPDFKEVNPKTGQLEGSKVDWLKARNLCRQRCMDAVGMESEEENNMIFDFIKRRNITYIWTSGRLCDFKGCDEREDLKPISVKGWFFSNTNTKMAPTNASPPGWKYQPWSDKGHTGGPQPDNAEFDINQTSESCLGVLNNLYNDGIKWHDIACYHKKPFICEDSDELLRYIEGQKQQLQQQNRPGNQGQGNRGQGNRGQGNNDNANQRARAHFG
Description: inhibition of agglutination of FITC-labelled Pseudomonas aeruginosa, fluorescence microscopy. It is filed as binding. To be noted: 10 mM CaCl2; 25-200 mM sugar tested; rPtCLec2 100 ug/mL; 30 min preincubation; indirect (competition) read-out.

With `OC[C@H]1OC(O)[C@H](O)[C@@H](O)[C@H]1O` (stereo partly drawn) [D-galactose], the “minimum concentration of carbohydrate that could completely inhibit bacterial agglutinating activity” value is “inhibited with the increasing concentration of LPS, D-galactose, and D-mannose”. Regarding `OC[C@H]1OC(O)[C@@H](O)[C@@H](O)[C@@H]1O` (stereo partly drawn) [D-mannose], the “minimum concentration of carbohydrate that could completely inhibit bacterial agglutinating activity” value was “inhibited with the increasing concentration of LPS, D-galactose, and D-mannose”.
